Assay results: patent US12077503B2, “Substituted cyclic amides and their use as herbicides” (FMC CORPORATION, priority 2015, dated 2024)

Tests used:
Format in all cases: in vivo
[1] = test system: ragweed (common ragweed, Ambrosia elatior); test: Test A preemergence; settings: Ambrosia artemisiifolia, pre-emergence, 240 h, 0 to 100 scale where 0 is no effect and 100 is complete control, read-out: Ragweed plant response rating
In short: (§1)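 Compounds were formulated in a non-phytotoxic solvent mixture with surfactant and applied as a preemergence directed soil spray after seeding, or sprayed postemergence over plants 2 to 10 cm tall at the one- to two-leaf stage. Evaluation after about 10 d compared treated with untreated controls, using a scale from 0 (no effect) to 100 (complete control).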

[2] = test system: ryegrass, Italian (Italian ryegrass, Lolium multiflorum); test: Test A preemergence; settings: Lolium multiflorum, pre-emergence, 240 h, 0 to 100 scale where 0 is no effect and 100 is complete control, read-out: Ryegrass, Italian plant response rating
In short: as §1

[3] = test system: giant foxtail (Setaria faberii); test: Test A preemergence; settings: Setaria faberi, pre-emergence, 240 h, 0 to 100 scale where 0 is no effect and 100 is complete control, read-out: Foxtail, Giant plant response rating
In short: as §1

Kochia (Kochia scoparia) [4] = test: Test A preemergence; settings: Bassia scoparia, pre-emergence, 240 h, 0 to 100 scale where 0 is no effect and 100 is complete control, read-out: Kochia plant response rating
In short: as §1

[5] = test system: barnyardgrass (Echinochloa crus-galli); test: Test A preemergence; settings: Echinochloa crus-galli, pre-emergence, 240 h, 0 to 100 scale where 0 is no effect and 100 is complete control, read-out: Barnyardgrass plant response rating
In short: as §1

[6] = test system: pigweed (Amaranthus retroflexus); test: Test A preemergence; settings: Amaranthus retroflexus, pre-emergence, 240 h, 0 to 100 scale where 0 is no effect and 100 is complete control, read-out: Pigweed plant response rating
[7] = test system: sedge, umbrella (small-flower umbrella sedge, Cyperus difformis); test: Test B flooded paddy test; settings: Cyperus difformis, 250 g ai/ha, Flood; 0 to 100 scale where 0 is no effect and 100 is complete control; read-out: Sedge, Umbrella plant response rating
In short: (§2)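 Plants at 2-leaf stage flooded to 3 cm above soil, with compounds applied directly to paddy water and that depth maintained. Plants kept in greenhouse 13–15 d. Visual rating versus controls on a 0 (no effect) to 100 (complete control) scale.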

rice (Oryra sativa) = test: Test B flooded paddy test; settings: Oryza sativa, 250 g ai/ha, Flood; 0 to 100 scale where 0 is no effect and 100 is complete control; read-out: Rice plant response rating
In short: as §2

[8] = test system: barnyardgrass (Echinochloa crus-galli); test: Test B flooded paddy test; settings: Echinochloa crus-galli, 250 g ai/ha, Flood; 0 to 100 scale where 0 is no effect and 100 is complete control; read-out: Barnyardgrass plant response rating
In short: as §2

[9] = test system: ducksalad (Heteranthera limosa); test: Test B flooded paddy test; settings: Heteranthera limosa, 250 g ai/ha, Flood; 0 to 100 scale where 0 is no effect and 100 is complete control; read-out: Ducksalad plant response rating
In short: as §2

[10] = test system: ragweed (common ragweed, Ambrosia elatior); test: Test A postemergence; settings: Ambrosia artemisiifolia, post-emergence, 240 h
In short: as §1

[11] = test system: ryegrass, Italian (Italian ryegrass, Lolium multiflorum); test: Test A postemergence; settings: Lolium multiflorum, post-emergence, 240 h
In short: as §1

[12] = test system: giant foxtail (Setaria faberii); test: Test A postemergence; settings: Setaria faberi, post-emergence, 240 h
In short: as §1

[13] = test system: blackgrass (Alopecurus myosuroides); test: Test A postemergence; settings: Alopecurus myosuroides, post-emergence, 240 h
In short: as §1

[14] = test system: wheat (Triticum aestivum); test: Test A postemergence; settings: Triticum aestivum, post-emergence, 240 h
In short: as §1

Kochia (Kochia scoparia) [15] = test: Test A postemergence; settings: Bassia scoparia, post-emergence, 240 h
In short: as §1

[16] = test system: barnyardgrass (Echinochloa crus-galli); test: Test A postemergence; settings: Echinochloa crus-galli, post-emergence, 240 h
In short: as §1

[17] = test system: Galium (catchweed bedstraw, Galium aparine); test: Test A postemergence; settings: Galium, post-emergence, 240 h
In short: as §1

corn (Zea mays) = test: Test A postemergence; settings: Zea mays, post-emergence, 240 h
In short: as §1

[18] = test system: pigweed (Amaranthus retroflexus); test: Test A postemergence; settings: Amaranthus retroflexus, post-emergence, 240 h
In short: as §1

[19] = 125 g ai/ha, preemergence, approx. 10 d

C=C(C)c1cccc([C@H]2CN(C)C(=O)[C@@H]2C(=O)Nc2ccc(F)c(F)c2F)c1 [Compound 1087]
0%: pest or weed control at 31 g/ha ([1]; 31 g ai/ha, Preemergence) | pest or weed control at 125 g/ha [1, 19] | pest or weed control at 31 g/ha ([2]; 31 g ai/ha, Preemergence) | pest or weed control at 31 g/ha (Kochia (Kochia scoparia) [4]; 31 g ai/ha, Preemergence) | pest or weed control at 31 g/ha ([5]; 31 g ai/ha, Preemergence) | pest or weed control at 31 g/ha ([6]; 31 g ai/ha, Preemergence) | pest or weed control at 125 g/ha [6, 19] | pest or weed control at 250 g/ha [7] | pest or weed control at 125 g/ha ([10]; 125 g ai/ha, postemergence, visual injury on 0 to 100 scale (0 no effect, 100 complete control), approx. 10 d, read-out: Ragweed plant response rating) | pest or weed control at 31 g/ha ([10]; Postemergence, 31 g ai/ha, visual injury after approx. 10 d, 0 to 100 scale, 0 no effect, 100 complete control, read-out: Plant response rating, Ragweed) | pest or weed control at 125 g/ha ([11]; 125 g ai/ha, postemergence, visual injury on 0 to 100 scale (0 no effect, 100 complete control), approx. 10 d, read-out: Ryegrass, Italian plant response rating) | pest or weed control at 31 g/ha ([11]; Postemergence, 31 g ai/ha, visual injury after approx. 10 d, 0 to 100 scale, 0 no effect, 100 complete control, read-out: Plant response rating, Ryegrass, Italian) | pest or weed control at 31 g/ha ([13]; Postemergence, 31 g ai/ha, visual injury after approx. 10 d, 0 to 100 scale, 0 no effect, 100 complete control, read-out: Plant response rating, Blackgrass) | plant injury at 125 g/ha ([14]; 125 g ai/ha, postemergence, visual injury on 0 to 100 scale (0 no effect, 100 complete control), approx. 10 d, read-out: Wheat plant response rating) | plant injury at 31 g/ha ([14]; Postemergence, 31 g ai/ha, visual injury after approx. 10 d, 0 to 100 scale, 0 no effect, 100 complete control, read-out: Plant response rating, Wheat) | pest or weed control at 31 g/ha (Kochia (Kochia scoparia) [15]; Postemergence, 31 g ai/ha, visual injury after approx. 10 d, 0 to 100 scale, 0 no effect, 100 complete control, read-out: Plant response rating, Kochia) | plant injury at 125 g/ha (corn (Zea mays); 125 g ai/ha, postemergence, visual injury on 0 to 100 scale (0 no effect, 100 complete control), approx. 10 d, read-out: Corn plant response rating) | Corn plant response rating (crop injury, 0 = no effect, 100 = complete kill) at 31 g/ha (corn (Zea mays); Postemergence, 31 g ai/ha, visual injury after approx. 10 d, 0 to 100 scale, 0 no effect, 100 complete control) | pest or weed control at 31 g/ha ([18]; Postemergence, 31 g ai/ha, visual injury after approx. 10 d, 0 to 100 scale, 0 no effect, 100 complete control, read-out: Plant response rating, Pigweed)
100%: pest or weed control at 125 g/ha [3, 19]
60%: pest or weed control at 125 g/ha (Kochia (Kochia scoparia) [4]; [19]) | pest or weed control at 125 g/ha ([12]; 125 g ai/ha, postemergence, visual injury on 0 to 100 scale (0 no effect, 100 complete control), approx. 10 d, read-out: Foxtail, Giant plant response rating)
90%: pest or weed control at 31 g/ha ([3]; 31 g ai/ha, Preemergence) | pest or weed control at 125 g/ha [5, 19] | pest or weed control at 125 g/ha ([16]; 125 g ai/ha, postemergence, visual injury on 0 to 100 scale (0 no effect, 100 complete control), approx. 10 d, read-out: Barnyardgrass plant response rating)
70%: pest or weed control at 250 g/ha [8] | pest or weed control at 125 g/ha ([17]; 125 g ai/ha, postemergence, visual injury on 0 to 100 scale (0 no effect, 100 complete control), approx. 10 d, read-out: Galium plant response rating)
25%: pest or weed control at 250 g/ha (rice (Oryra sativa))
20%: pest or weed control at 125 g/ha (Kochia (Kochia scoparia) [15]; 125 g ai/ha, postemergence, visual injury on 0 to 100 scale (0 no effect, 100 complete control), approx. 10 d, read-out: Kochia plant response rating) | pest or weed control at 31 g/ha ([16]; Postemergence, 31 g ai/ha, visual injury after approx. 10 d, 0 to 100 scale, 0 no effect, 100 complete control, read-out: Plant response rating, Barnyardgrass)
30%: pest or weed control at 125 g/ha [2, 19] | pest or weed control at 250 g/ha [9] | pest or weed control at 31 g/ha ([12]; Postemergence, 31 g ai/ha, visual injury after approx. 10 d, 0 to 100 scale, 0 no effect, 100 complete control, read-out: Plant response rating, Foxtail, Giant) | pest or weed control at 125 g/ha ([13]; 125 g ai/ha, postemergence, visual injury on 0 to 100 scale (0 no effect, 100 complete control), approx. 10 d, read-out: Blackgrass plant response rating) | pest or weed control at 31 g/ha ([17]; Postemergence, 31 g ai/ha, visual injury after approx. 10 d, 0 to 100 scale, 0 no effect, 100 complete control, read-out: Plant response rating, Galium) | pest or weed control at 125 g/ha ([18]; 125 g ai/ha, postemergence, visual injury on 0 to 100 scale (0 no effect, 100 complete control), approx. 10 d, read-out: Pigweed plant response rating)
